{
  "source": "patent EP0324210A1",
  "about": "(UOP, priority 1988, dated 1989)",
  "origin": "cited, not measured here",
  "details": "aqueous solution, 25°C",
  "data": [
    {"compound": "O=C(O)CC(O)(CC(=O)O)C(=O)O", "note": "[citric acid]", "values": [
      {"measurement": "acid dissociation constant pKa₃", "value": 5.40}
    ]}
  ]
}
